Laboratory results as given in ChEMBL document CHEMBL4431349, “Synthesis and in vitro evaluation of water-soluble 1,4-diphenethylpiperazine analogs as novel inhibitors of the vesicular monoamine transporter-2” (Bioorg Med Chem Lett, 2016).

Experiments:
[1] = target: Voltage-gated inwardly rectifying potassium channel KCNH2 (Homo sapiens, UniProt Q12809); experiment: Inhibition of [3H]dofetilide binding to human ERG expressed in HEK293 cell membranes after 60 mins by liquid scintillation spectrometric analysis
Voltage-gated inwardly rectifying potassium channel KCNH2, sequence (Q12809 whole entry): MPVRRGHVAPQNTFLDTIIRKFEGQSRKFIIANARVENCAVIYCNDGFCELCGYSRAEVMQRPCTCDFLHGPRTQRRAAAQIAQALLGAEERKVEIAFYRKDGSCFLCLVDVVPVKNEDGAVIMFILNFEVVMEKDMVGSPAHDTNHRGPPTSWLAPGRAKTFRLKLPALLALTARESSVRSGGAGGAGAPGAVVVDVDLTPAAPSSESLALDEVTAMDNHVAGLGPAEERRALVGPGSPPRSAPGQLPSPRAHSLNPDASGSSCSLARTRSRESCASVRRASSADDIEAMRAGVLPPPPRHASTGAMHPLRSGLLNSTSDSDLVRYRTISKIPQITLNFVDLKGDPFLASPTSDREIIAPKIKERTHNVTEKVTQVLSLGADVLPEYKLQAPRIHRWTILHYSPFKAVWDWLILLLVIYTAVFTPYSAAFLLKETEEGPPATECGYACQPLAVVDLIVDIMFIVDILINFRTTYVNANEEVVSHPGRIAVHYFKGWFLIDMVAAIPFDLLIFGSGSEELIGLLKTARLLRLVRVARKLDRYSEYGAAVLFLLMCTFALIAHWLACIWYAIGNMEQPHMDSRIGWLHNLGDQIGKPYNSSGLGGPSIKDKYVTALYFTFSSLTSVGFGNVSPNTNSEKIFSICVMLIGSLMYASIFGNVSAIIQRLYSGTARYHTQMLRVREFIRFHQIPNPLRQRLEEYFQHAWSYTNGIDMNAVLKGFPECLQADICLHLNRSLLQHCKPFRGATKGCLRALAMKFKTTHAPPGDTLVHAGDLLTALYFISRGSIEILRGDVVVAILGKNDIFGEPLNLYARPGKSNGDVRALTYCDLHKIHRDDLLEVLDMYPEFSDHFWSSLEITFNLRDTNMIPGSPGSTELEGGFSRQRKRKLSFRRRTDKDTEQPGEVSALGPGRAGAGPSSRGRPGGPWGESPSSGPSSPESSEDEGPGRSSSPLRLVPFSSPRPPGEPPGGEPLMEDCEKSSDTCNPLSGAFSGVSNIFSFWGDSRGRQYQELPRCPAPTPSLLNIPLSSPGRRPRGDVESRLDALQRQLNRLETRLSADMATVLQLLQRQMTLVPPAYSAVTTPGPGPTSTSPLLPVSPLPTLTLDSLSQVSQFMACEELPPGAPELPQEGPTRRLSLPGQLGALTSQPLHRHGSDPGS

[2] = Thermodynamic solubility of the compound in water at pH 7.4 after 24 hrs by HPLC based shake flask method; assay type: physicochemical; details: read-out: Therm_solubility

SMILES	Ki [1]	solubility thermodynamic at 24 h [2]
Clc1ccccc1CCN1CCN(CCc2ccccc2Cl)CC1	1080 nM	
COc1ccccc1CCN1CCN(CCc2ccccc2OC)CC1	1020 nM	
COc1ccccc1CCN1CCN(CCc2ccccc2)CC1.Cl.Cl	2940 nM	33.3 mg/mL
